Some results are limits rather than exact numbers.

The record followed here is patent publication US11267822B2, “BET bromodomain protein degraders with cleavable linkers” (THE REGENTS OF THE UNIVERSITY OF MICHIGAN, priority 2017, dated 2022).

The test system of test [1] is MOLM13. The test is described as follows: Cell growth inhibition, CellTiter-Glo Luminescent Cell Viability Assay, MOLM13. The class given is cell-based. The conditions noted are these: MOLM13 cells, 4 days. Here is the method: (§1) Cell growth inhibitory activity of representative Compounds of the Disclosure was determined using the CellTiter-Glo® Luminescent Cell Viability Assay. Cells were seeded in 384-well white opaque cell culture plates at a density of 2,000 cells/well with serially diluted compounds and incubated at 37° C. in an atmosphere of 95% air and 5% CO2 for 4 days. Cell viability was determined using the CellTiter-Glo® Luminescent Cell Viability Assay Kit (Promega, Madison, Wis.) according to the manufacture's instruction. Briefly, a volume of CellTiter-Glo® Reagent equal to the volume of cell culture medium was added to each well, and then the plates were incubated at room temperature for 10-20 minutes. The luminescent signal was measured using a Tecan Infinite M1000 multimode microplate reader (Tecan, Morrisville, N.C.). The half maximal inhibitory concentration (IC50) in Table 3 was calculated using the GraphPad Prism 5 software (GraphPad Software, La Jolla, Calif.).
(Cellular ATP, detected with luciferase, serves as a proxy for viable cell number.)

Test [2] deals with MDA-MB-231. The test is described as follows: Cell growth inhibition, CellTiter-Glo Luminescent Cell Viability Assay, MDA-MB-231. Format: cell-based. The conditions noted are these: MDA-MB-231 cells, 4 days. On the procedure:
as §1

As usually defined, the IC50 is the concentration at which inhibition is half-maximal. Low readings indicate greater potency, high ones weaker potency. Take `Cc1c(C#Cc2cnn(CCCC(=O)OCCCN3CCC(Nc4cccc5c4CN(C4CCC(=O)NC4=O)C5=O)CC3)c2)sc2c1C(c1ccc(Cl)cc1)=N[C@@H](CC(=O)N1CCN(C)CC1)c1nnc(C)n1-2` (stereo partly drawn) [Cpd. No. 1, 3-(4-((2-(2,6-dioxopiperidin-3-yl)-1-oxoisoindolin-4-yl)amino)piperidin-1-yl)propyl 4-(4-(((S)-4-(4-chlorophenyl)-3,9-dimethyl-6-(2-(4-methylpiperazin-1-yl)-2-oxoethyl)-6H-thieno[3,2-f][1,2,4]triazolo[4,3-a][1,4]diazepin-2-yl)ethynyl)-1H-pyrazol-1-yl)butanoate]: the IC50 in test [1] (Homo sapiens, MOLM-13, 96 h) is 1.1 nM; in test [2] (Homo sapiens, MDA-MB-231, 96 h), 2.5 nM.

Take `Cc1c(C#Cc2cnn(CC(=O)OCC#Cc3cccc4c3CN(C3CCC(=O)NC3=O)C4=O)c2)sc2c1C(c1ccc(Cl)cc1)=N[C@@H](C)c1nnc(C)n1-2` (stereo partly drawn) [Cpd. No. 4, 3-(2-(2,6-dioxopiperidin-3-yl)-1-oxoisoindolin-4-yl)prop-2-yn-1-yl 2-(4-(((S)-4-(4-chlorophenyl)-3,6,9-trimethyl-6H-thieno[3,2-f][1,2,4]triazolo[4,3-a][1,4]diazepin-2-yl)ethynyl)-1H-pyrazol-1-yl)acetate]: the IC50 in test [1] is 17.3 nM; in test [2] it was 276 nM.

In test [1] (Homo sapiens, MOLM-13, 96 h), `Cc1nnc2n1-c1sc(C#Cc3cnn(CCCC(=O)OCCCNc4cccc5c4CN(C4CCC(=O)NC4=O)C5=O)c3)c(Cc3ccccc3)c1COC2` (stereo not shown) [Cpd. No. 18, 3-((2-(2,6-dioxopiperidin-3-yl)-1-oxoisoindolin-4-yl)amino)propyl 4-(4-((3-benzyl-9-methyl-4H,6H-thieno[2,3-e][1,2,4]triazolo[3,4-c][1,4]oxazepin-2-yl)ethynyl)-1H-pyrazol-1-yl)butanoate] registered an IC50 of 7.3 nM.

`Cc1c(C#Cc2cnn(CCCC(=O)OCCCOc3cccc4c3CN(C3CCC(=O)NC3=O)C4=O)c2)sc2c1C(c1ccc(Cl)cc1)=N[C@@H](CC(=O)N1CCN(C)CC1)c1nnc(C)n1-2` (stereo partly drawn) [compound 9, 3-((2-(2,6-dioxopiperidin-3-yl)-1-oxoisoindolin-4-yl)oxy)propyl 4-(4-(((S)-4-(4-chlorophenyl)-3,9-dimethyl-6-(2-(4-methylpiperazin-1-yl)-2-oxoethyl)-6H-thieno[3,2-f][1,2,4]triazolo[4,3-a][1,4]diazepin-2-yl)ethynyl)-1H-pyrazol-1-yl)butanoate]: in test [1] (Homo sapiens, MOLM-13, 96 h), 0.2 nM corresponded to half-maximal inhibition (IC50).

Take `Cc1c(C#Cc2cnn(CCCC(=O)OCCOCCOCCOc3cccc4c3CN(C3CCC(=O)NC3=O)C4=O)c2)sc2c1C(c1ccc(Cl)cc1)=N[C@@H](CC(=O)N1CCN(C)CC1)c1nnc(C)n1-2` (stereo partly drawn) [compound 10, 2-(2-(2-((2-(2,6-dioxopiperidin-3-yl)-1-oxoisoindolin-4-yl)oxy)ethoxy)ethoxy)ethyl 4-(4-(((S)-4-(4-chlorophenyl)-3,9-dimethyl-6-(2-(4-methylpiperazin-1-yl)-2-oxoethyl)-6H-thieno[3,2-f][1,2,4]triazolo[4,3-a][1,4]diazepin-2-yl)ethynyl)-1H-pyrazol-1-yl)butanoate]: 4 nM corresponded to half-maximal inhibition in test [1] (Homo sapiens, MOLM-13, 96 h) (IC50).

In test [2] (Homo sapiens, MDA-MB-231, 96 h), `Cc1c(C#Cc2cnn(CCCC(=O)OCCOCCN3CCC(Nc4cccc5c4CN(C4CCC(=O)NC4=O)C5=O)CC3)c2)sc2c1C(c1ccc(Cl)cc1)=N[C@@H](CC(=O)N1CCN(C)CC1)c1nnc(C)n1-2` (stereo partly drawn) [compound 13, 2-(2-(4-((2-(2,6-dioxopiperidin-3-yl)-1-oxoisoindolin-4-yl)amino)piperidin-1-yl)ethoxy)ethyl 4-(4-(((S)-4-(4-chlorophenyl)-3,9-dimethyl-6-(2-(4-methylpiperazin-1-yl)-2-oxoethyl)-6H-thieno[3,2-f][1,2,4]triazolo[4,3-a][1,4]diazepin-2-yl)ethynyl)-1H-pyrazol-1-yl)butanoate] came in with an IC50 of 12.2 nM.

With `Cc1c(C#Cc2cnn(CCCC(=O)OCCOCCOCCN3CCC(Nc4cccc5c4CN(C4CCC(=O)NC4=O)C5=O)CC3)c2)sc2c1C(c1ccc(Cl)cc1)=N[C@@H](CC(=O)N1CCN(C)CC1)c1nnc(C)n1-2` (stereo partly drawn) [compound 14, 2-(2-(2-(4-((2-(2,6-dioxopiperidin-3-yl)-1-oxoisoindolin-4-yl)amino)piperidin-1-yl)ethoxy)ethoxy)ethyl 4-(4-(((S)-4-(4-chlorophenyl)-3,9-dimethyl-6-(2-(4-methylpiperazin-1-yl)-2-oxoethyl)-6H-thieno[3,2-f][1,2,4]triazolo[4,3-a][1,4]diazepin-2-yl)ethynyl)-1H-pyrazol-1-yl)butanoate], the IC50 in test [2] (Homo sapiens, MDA-MB-231, 96 h) was 20.7 nM.

In test [1] (Homo sapiens, MOLM-13, 96 h), `Cc1nnc2n1-c1sc(C#Cc3cnn(CCCOC(=O)CCCCc4cccc5c4CN(C4CCC(=O)NC4=O)C5=O)c3)c(Cc3ccccc3)c1COC2` (stereo not shown) [compound 19, 3-(4-((3-benzyl-9-methyl-4H,6H-thieno[2,3-e][1,2,4]triazolo[3,4-c][1,4]oxazepin-2-yl)ethynyl)-1H-pyrazol-1-yl)propyl 5-(2-(2,6-dioxopiperidin-3-yl)-1-oxoisoindolin-4-yl)pentanoate] came in with an IC50 of 7.3 nM.

As for `Cc1nnc2n1-c1sc(C#Cc3cnn(CCCOC(=O)CCCc4cccc5c4CN(C4CCC(=O)NC4=O)C5=O)c3)c(Cc3ccccc3)c1COC2` (stereo not shown) [compound 20, 3-(4-((3-benzyl-9-methyl-4H,6H-thieno[2,3-e][1,2,4]triazolo[3,4-c][1,4]oxazepin-2-yl)ethynyl)-1H-pyrazol-1-yl)propyl 4-(2-(2,6-dioxopiperidin-3-yl)-1-oxoisoindolin-4-yl)butanoate], 22.6 nM corresponded to half-maximal inhibition in test [1] (Homo sapiens, MOLM-13, 96 h) (IC50).

`Cc1nnc2n1-c1sc(C#Cc3cnn(CCCC(=O)OCCCN4CCN(c5cccc6c5C(=O)N(C5CCC(=O)NC5=O)C6=O)CC4)c3)c(Cc3ccccc3)c1COC2` (stereo not shown) [compound 24, 3-(4-(2-(2,6-dioxopiperidin-3-yl)-1,3-dioxoisoindolin-4-yl)piperazin-1-yl)propyl 4-(4-((3-benzyl-9-methyl-4H,6H-thieno[2,3-e][1,2,4]triazolo[3,4-c][1,4]oxazepin-2-yl)ethynyl)-1H-pyrazol-1-yl)butanoate] had an IC50 in test [1] (Homo sapiens, MOLM-13, 96 h) of 17.6 nM.

`Cc1nnc2n1-c1sc(C#Cc3cnn(CCCC(=O)OCCOCCN4CCC(Nc5cccc6c5CN(C5CCC(=O)NC5=O)C6=O)CC4)c3)c(Cc3ccccc3)c1COC2` (stereo not shown) [compound 26, 2-(2-(4-((2-(2,6-dioxopiperidin-3-yl)-1-oxoisoindolin-4-yl)amino)piperidin-1-yl)ethoxy)ethyl 4-(4-((3-benzyl-9-methyl-4H,6H-thieno[2,3-e][1,2,4]triazolo[3,4-c][1,4]oxazepin-2-yl)ethynyl)-1H-pyrazol-1-yl)butanoate] yielded an IC50 in test [2] (Homo sapiens, MDA-MB-231, 96 h) of 24.1 nM.

In test [2] (Homo sapiens, MDA-MB-231, 96 h), `Cc1nnc2n1-c1sc(C#Cc3cnn(CCCC(=O)OCCOCCOCCN4CCC(Nc5cccc6c5CN(C5CCC(=O)NC5=O)C6=O)CC4)c3)c(Cc3ccccc3)c1COC2` (stereo not shown) [compound 27, 2-(2-(2-(4-((2-(2,6-dioxopiperidin-3-yl)-1-oxoisoindolin-4-yl)amino)piperidin-1-yl)ethoxy)ethoxy)ethyl 4-(4-((3-benzyl-9-methyl-4H,6H-thieno[2,3-e][1,2,4]triazolo[3,4-c][1,4]oxazepin-2-yl)ethynyl)-1H-pyrazol-1-yl)butanoate] had an IC50 of 23.3 nM.

As for `Cc1nnc2n1-c1sc(C#Cc3cnn(CCCC(=O)OCCCCc4cccc5c4CN(C4CCC(=O)NC4=O)C5=O)c3)c(Cc3ccccc3)c1COC2` (stereo not shown) [compound 35, 4-(2-(2,6-dioxopiperidin-3-yl)-1-oxoisoindolin-4-yl)butyl 4-(4-((3-benzyl-9-methyl-4H,6H-thieno[2,3-e][1,2,4]triazolo[3,4-c][1,4]oxazepin-2-yl)ethynyl)-1H-pyrazol-1-yl)butanoate], half-maximal inhibition in test [1] (Homo sapiens, MOLM-13, 96 h) (IC50) required 4.9 nM.

For the compound `Cc1nnc2n1-c1sc(C#Cc3cnn(CCCC(=O)OCCCc4cccc5c4CN(C4CCC(=O)NC4=O)C5=O)c3)c(Cc3ccccc3)c1COC2` (stereo not shown) [compound 36, 3-(2-(2,6-dioxopiperidin-3-yl)-1-oxoisoindolin-4-yl)propyl 4-(4-((3-benzyl-9-methyl-4H,6H-thieno[2,3-e][1,2,4]triazolo[3,4-c][1,4]oxazepin-2-yl)ethynyl)-1H-pyrazol-1-yl)butanoate], in test [1] (Homo sapiens, MOLM-13, 96 h), the IC50 amounted to 4.6 nM.

`Cc1nnc2n1-c1sc(C#Cc3cnn(CC(=O)OCCCOc4cccc5c4CN(C4CCC(=O)NC4=O)C5=O)c3)c(Cc3ccccc3)c1COC2` (stereo not shown) [compound 37, 3-((2-(2,6-dioxopiperidin-3-yl)-1-oxoisoindolin-4-yl)oxy)propyl 2-(4-((3-benzyl-9-methyl-4H,6H-thieno[2,3-e][1,2,4]triazolo[3,4-c][1,4]oxazepin-2-yl)ethynyl)-1H-pyrazol-1-yl)acetate] registered an IC50 in test [1] (Homo sapiens, MOLM-13, 96 h) of 9.1 nM.

`Cc1nnc2n1-c1sc(C#Cc3cnn(CC(=O)OCC#Cc4cccc5c4CN(C4CCC(=O)NC4=O)C5=O)c3)c(Cc3ccccc3)c1COC2` (stereo not shown) [compound 39, 3-(2-(2,6-dioxopiperidin-3-yl)-1-oxoisoindolin-4-yl)prop-2-yn-1-yl 2-(4-((3-benzyl-9-methyl-4H,6H-thieno[2,3-e][1,2,4]triazolo[3,4-c][1,4]oxazepin-2-yl)ethynyl)-1H-pyrazol-1-yl)acetate]: the IC50 in test [2] (Homo sapiens, MDA-MB-231, 96 h) was above 100 nM.

On to `Cc1nnc2n1-c1sc(C#Cc3cnn(CC(=O)OCCC#Cc4cccc5c4CN(C4CCC(=O)NC4=O)C5=O)c3)c(Cc3ccccc3)c1COC2` (stereo not shown) [compound 40, 4-(2-(2,6-dioxopiperidin-3-yl)-1-oxoisoindolin-4-yl)but-3-yn-1-yl 2-(4-((3-benzyl-9-methyl-4H,6H-thieno[2,3-e][1,2,4]triazolo[3,4-c][1,4]oxazepin-2-yl)ethynyl)-1H-pyrazol-1-yl)acetate], for which, in test [2] (Homo sapiens, MDA-MB-231, 96 h), the midpoint of inhibition, the IC50, lay at 24.3 nM.
